# According to publication PMC5218480 (PLoS ONE, 2017):
# System: MV-4-11 cells
# Assay: Gene expression microarray analysis (Affymetrix PrimeView) and GSEA
# Format: cell-based, human
# Design: RFU PODN (11730768_x_at) / Fold change /veh PODN (11730768_x_at) / RFU LINC00158 (11744669_a_at) / Fold change /veh LINC00158 (11744669_a_at) / RFU DUSP10 (11751237_a_at) / Fold change /veh DUSP10 (11751237_a_at) / RFU ID3 (11757404_x_at) / Fold change /veh ID3 (11757404_x_at) / RFU PLEKHG5 (11737974_s_at) / Fold change /veh PLEKHG5 (11737974_s_at) / RFU LRRC4B (11730491_at) / Fold change /veh LRRC4B (11730491_at) / RFU GIMAP4 (11747438_a_at) / Fold change /veh GIMAP4 (11747438_a_at) / RFU KRT8 (11758183_x_at) / Fold change /veh KRT8 (11758183_x_at) / RFU CNN1 (11734310_a_at) / Fold change /veh CNN1 (11734310_a_at) / RFU VPS37D (11726825_at) / Fold change /veh VPS37D (11726825_at) / RFU C10orf10 (11716522_x_at) / Fold change /veh C10orf10 (11716522_x_at) / RFU KIR2DL2 /// KIR2DL4 /// KIR2DL5A /// KIR2DL5B /// KIR2DS1 /// KIR2DS2 /// KIR2DS3 /// KIR2DS4 /// KIR3DL3 /// KIR3DL3 /// KIR3DS1 (11738374_at) / Fold change /veh KIR2DL2 /// KIR2DL4 /// KIR2DL5A /// KIR2DL5B /// KIR2DS1 /// KIR2DS2 /// KIR2DS3 /// KIR2DS4 /// KIR3DL3 /// KIR3DL3 /// KIR3DS1 (11738374_at) / RFU C1QL1 (11718748_at) / Fold change /veh C1QL1 (11718748_at) / RFU TMPRSS4 (11747572_a_at) / Fold change /veh TMPRSS4 (11747572_a_at) / RFU HAMP (11756126_x_at) / Fold change /veh HAMP (11756126_x_at) / RFU RNFT2 (11725882_a_at) / Fold change /veh RNFT2 (11725882_a_at) / RFU NR4A2 (11747474_a_at) / Fold change /veh NR4A2 (11747474_a_at) / RFU ABCC12 (11746883_a_at) / Fold change /veh ABCC12 (11746883_a_at) / RFU TMEM136 (11760407_x_at) / Fold change /veh TMEM136 (11760407_x_at) / RFU CLDN22 /// WWC2 (11732394_at) / Fold change /veh CLDN22 /// WWC2 (11732394_at) / RFU HLA-DPB1 (11760878_x_at) / Fold change /veh HLA-DPB1 (11760878_x_at) / RFU SPINT1 (11716480_a_at) / Fold change /veh SPINT1 (11716480_a_at) / RFU GAP43 (11754022_s_at) / Fold change /veh GAP43 (11754022_s_at) / RFU A4GNT (11735810_at) / Fold change /veh A4GNT (11735810_at) / RFU PRB3 (11715151_x_at) / Fold change /veh PRB3 (11715151_x_at) / RFU TUBB4B (11761932_at) / Fold change /veh TUBB4B (11761932_at) / RFU CAPN14 (11732068_a_at) / Fold change /veh CAPN14 (11732068_a_at) / RFU TMCC2 (11721928_a_at) / Fold change /veh TMCC2 (11721928_a_at) / RFU IRGQ (11745062_a_at) / Fold change /veh IRGQ (11745062_a_at) / RFU FAM174B (11720279_a_at) / Fold change /veh FAM174B (11720279_a_at) / RFU TMPRSS4 (11748680_a_at) / Fold change /veh TMPRSS4 (11748680_a_at) / RFU FAM212B (11763350_a_at) / Fold change /veh FAM212B (11763350_a_at) / RFU PLEKHG5 (11743358_a_at) / Fold change /veh PLEKHG5 (11743358_a_at) / RFU ZSCAN30 (11745921_a_at) / Fold change /veh ZSCAN30 (11745921_a_at) / RFU CMKLR1 (11741424_a_at) / Fold change /veh CMKLR1 (11741424_a_at) / RFU LOC101060620 /// MAPK8IP1 (11723275_at) / Fold change /veh LOC101060620 /// MAPK8IP1 (11723275_at) / RFU SPTSSB (11747773_x_at) / Fold change /veh SPTSSB (11747773_x_at) / RFU PRSS12 (11739890_at) / Fold change /veh PRSS12 (11739890_at) / RFU BIN1 (11741810_x_at) / Fold change /veh BIN1 (11741810_x_at) / RFU WNT11 (11732464_a_at) / Fold change /veh WNT11 (11732464_a_at) / RFU C10orf10 (11716521_a_at) / Fold change /veh C10orf10 (11716521_a_at) / RFU C5orf56 (11738089_at) / Fold change /veh C5orf56 (11738089_at) / RFU CYB561 (11721691_x_at) / Fold change /veh CYB561 (11721691_x_at) / RFU ANKRD19P (11752326_a_at) / Fold change /veh ANKRD19P (11752326_a_at) / RFU OR2T12 /// OR2T33 /// OR2T8 (11738714_s_at) / Fold change /veh OR2T12 /// OR2T33 /// OR2T8 (11738714_s_at) / RFU VCAN (11748164_a_at) / Fold change /veh VCAN (11748164_a_at) / RFU JSRP1 (11732532_at) / Fold change /veh JSRP1 (11732532_at) / RFU KRTAP10-11 (11738290_x_at) / Fold change /veh KRTAP10-11 (11738290_x_at) / RFU MYO3A (11730013_a_at) / Fold change /veh MYO3A (11730013_a_at) / RFU EBF3 (11725865_a_at) / Fold change /veh EBF3 (11725865_a_at) / RFU CAMK2N1 (11719241_x_at) / Fold change /veh CAMK2N1 (11719241_x_at) / RFU C5orf56 (11738088_a_at) / Fold change /veh C5orf56 (11738088_a_at) / RFU OLFML3 (11715873_a_at) / Fold change /veh OLFML3 (11715873_a_at) / RFU LOC100653217 /// NTM (11731650_a_at) / Fold change /veh LOC100653217 /// NTM (11731650_a_at) / RFU MAPK11 (11762145_a_at) / Fold change /veh MAPK11 (11762145_a_at) / RFU FIZ1 (11724087_x_at) / Fold change /veh FIZ1 (11724087_x_at) / RFU OASL (11726364_x_at) / Fold change /veh OASL (11726364_x_at) / RFU SOX15 (11748057_x_at) / Fold change /veh SOX15 (11748057_x_at) / RFU CD79A (11719716_a_at) / Fold change /veh CD79A (11719716_a_at) / RFU HIST1H1D (11736915_at) / Fold change /veh HIST1H1D (11736915_at) / RFU CASKIN2 (11723855_a_at) / Fold change /veh CASKIN2 (11723855_a_at) / RFU LOC730098 (11760151_x_at) / Fold change /veh LOC730098 (11760151_x_at) / RFU OR4N2 (11742367_at) / Fold change /veh OR4N2 (11742367_at) / RFU PRRT2 (11749266_a_at) / Fold change /veh PRRT2 (11749266_a_at) / RFU SNX32 (11753110_a_at) / Fold change /veh SNX32 (11753110_a_at) / RFU CDHR5 (11726645_a_at) / Fold change /veh CDHR5 (11726645_a_at) / RFU RCAN1 (11760418_a_at) / Fold change /veh RCAN1 (11760418_a_at) / RFU FAM167A (11723789_a_at) / Fold change /veh FAM167A (11723789_a_at) / RFU FAM26E (11764081_at) / Fold change /veh FAM26E (11764081_at) / RFU ISYNA1 (11749810_s_at) / Fold change /veh ISYNA1 (11749810_s_at) / RFU ACY1 (11761880_at) / Fold change /veh ACY1 (11761880_at) / RFU 11764098_at / Fold change /veh 11764098_at / RFU SAMD14 (11745864_x_at) / Fold change /veh SAMD14 (11745864_x_at) / RFU NPB (11741838_a_at) / Fold change /veh NPB (11741838_a_at) / RFU TMPRSS6 (11731388_a_at) / Fold change /veh TMPRSS6 (11731388_a_at) / RFU KRTAP10-2 (11738614_at) / Fold change /veh KRTAP10-2 (11738614_at) / RFU ARHGAP8 /// PRR5-ARHGAP8 (11727945_x_at) / Fold change /veh ARHGAP8 /// PRR5-ARHGAP8 (11727945_x_at) / RFU KRTAP5-7 /// NADSYN1 (11734609_at) / Fold change /veh KRTAP5-7 /// NADSYN1 (11734609_at) / RFU RASL12 (11751679_a_at) / Fold change /veh RASL12 (11751679_a_at) / RFU CDKN2B (11736163_a_at) / Fold change /veh CDKN2B (11736163_a_at) / RFU PRF1 (11729649_at) / Fold change /veh PRF1 (11729649_at) / RFU, ZNF638 /// ZNF638-IT1 / Fold change vs veh, ZNF638 /// ZNF638-IT1 / RFU, PANK3 / Fold change vs veh, PANK3 / RFU, SH3YL1 / Fold change vs veh, SH3YL1 / RFU, ZEB2 / Fold change vs veh, ZEB2 / RFU, NRIP1 / Fold change vs veh, NRIP1 / RFU, PTTG1IP / Fold change vs veh, PTTG1IP / RFU, CAPN2 / Fold change vs veh, CAPN2 / RFU, MED14 / Fold change vs veh, MED14 / RFU, SNORA58 / Fold change vs veh, SNORA58 / RFU, C1orf63 / Fold change vs veh, C1orf63 / RFU, LRRFIP1 / Fold change vs veh, LRRFIP1 / RFU, NDUFAF7 / Fold change vs veh, NDUFAF7 / RFU, SLC12A2 / Fold change vs veh, SLC12A2 / RFU, IBTK / Fold change vs veh, IBTK / RFU, ESF1 / Fold change vs veh, ESF1 / Fold change vs veh, TMEM50B / RFU, TAOK1 / Fold change vs veh, TAOK1 / RFU, ACBD3 / Fold change vs veh, ACBD3 / RFU, TMA16 / Fold change vs veh, TMA16 / RFU, RWDD3 / Fold change vs veh, RWDD3 / RFU, BCAT1 / Fold change vs veh, BCAT1 / RFU, EDEM3 / Fold change vs veh, EDEM3 / RFU, TMEM33 / Fold change vs veh, TMEM33 / RFU, WDR75 / Fold change vs veh, WDR75 / RFU, AHCTF1 / Fold change vs veh, AHCTF1 / RFU, TFRC / Fold change vs veh, TFRC / RFU, ZDHHC17 / Fold change vs veh, ZDHHC17 / RFU, NOM1 / Fold change vs veh, NOM1 / RFU, ARL8B / Fold change vs veh, ARL8B / RFU, ZBTB11 / Fold change vs veh, ZBTB11 / RFU, TAMM41 / Fold change vs veh, TAMM41 / RFU, KIAA1704 /// LOC100996395 / Fold change vs veh, KIAA1704 /// LOC100996395 / RFU, ING1 / Fold change vs veh, ING1 / RFU, TRMT61B / Fold change vs veh, TRMT61B / RFU, FUBP3 / Fold change vs veh, FUBP3 / RFU, TP53 / Fold change vs veh, TP53 / RFU, TNKS2 / Fold change vs veh, TNKS2 / RFU, ZFP14 / Fold change vs veh, ZFP14 / RFU, ACTR2 / Fold change vs veh, ACTR2 / RFU, PPP3R1 / Fold change vs veh, PPP3R1 / RFU, PIK3R1 / Fold change vs veh, PIK3R1 / RFU, HNRNPA1 / Fold change vs veh, HNRNPA1 / RFU, RNF170 / Fold change vs veh, RNF170 / RFU, ZNF28 / Fold change vs veh, ZNF28 / RFU, RNGTT / Fold change vs veh, RNGTT / RFU, OGT / Fold change vs veh, OGT / RFU, BRD1 / Fold change vs veh, BRD1 / RFU, MARS / Fold change vs veh, MARS / RFU, ZNF655 / Fold change vs veh, ZNF655 / RFU, FAHD1 / Fold change vs veh, FAHD1 / RFU, BDP1 / Fold change vs veh, BDP1 / RFU, LRRCC1 / Fold change vs veh, LRRCC1 / RFU, ARID1A / Fold change vs veh, ARID1A / RFU, ZNF146 / Fold change vs veh, ZNF146 / RFU, ZNF330 / Fold change vs veh, ZNF330 / RFU, GPN3 / Fold change vs veh, GPN3 / RFU, C9orf123 / Fold change vs veh, C9orf123 / RFU, N4BP2L2 / Fold change vs veh, N4BP2L2 / RFU, ARFIP1 / Fold change vs veh, ARFIP1 / RFU, FAM179B / Fold change vs veh, FAM179B / RFU, BCL10 / Fold change vs veh, BCL10 / RFU, UHRF1BP1L / Fold change vs veh, UHRF1BP1L / RFU, BET1 / Fold change vs veh, BET1 / RFU, CNOT2 / Fold change vs veh, CNOT2 / RFU, ZNF268 / Fold change vs veh, ZNF268 / Fold change vs veh, ZNF507 / RFU, DGCR2 / Fold change vs veh, DGCR2 / RFU, WDSUB1 / Fold change vs veh, WDSUB1 / Fold change vs veh, HSP90B1 /// MIR3652 / RFU, ADSS / Fold change vs veh, ADSS / RFU, GK / Fold change vs veh, GK / RFU, ZNF148 / Fold change vs veh, ZNF148 / RFU, TAF9 / Fold change vs veh, TAF9 / RFU, SLC1A5 / Fold change vs veh, SLC1A5 / RFU, SLMO2 / Fold change vs veh, SLMO2 / RFU, ABCC4 / Fold change vs veh, ABCC4 / RFU, LOC101060439 /// RAP1B / Fold change vs veh, LOC101060439 /// RAP1B / RFU, RFX7 / Fold change vs veh, RFX7 / RFU, GTPBP10 / Fold change vs veh, GTPBP10 / RFU, CNEP1R1 / Fold change vs veh, CNEP1R1 / RFU, BIVM-ERCC5 /// ERCC5 / Fold change vs veh, BIVM-ERCC5 /// ERCC5 / RFU, ILF3 / Fold change vs veh, ILF3 / RFU 11762660_at / Fold change /veh 11762660_at / RFU VCAN (11757783_s_at) / Fold change /veh VCAN (11757783_s_at) / RFU DDX43 (11728927_at) / Fold change /veh DDX43 (11728927_at) / RFU KRT8 (11758188_x_at) / Fold change /veh KRT8 (11758188_x_at) / RFU NKD1 (11759106_at) / Fold change /veh NKD1 (11759106_at) / RFU SRD5A1 (11742802_a_at) / Fold change /veh SRD5A1 (11742802_a_at) / RFU TPSAB1 /// TPSB2 (11721975_s_at) / Fold change /veh TPSAB1 /// TPSB2 (11721975_s_at) / RFU GSTM3 (11746129_a_at) / Fold change /veh GSTM3 (11746129_a_at) / RFU IL23R (11737362_x_at) / Fold change /veh IL23R (11737362_x_at) / RFU TMEM51 (11727254_a_at) / Fold change /veh TMEM51 (11727254_a_at) / RFU PIWIL2 (11732686_x_at) / Fold change /veh PIWIL2 (11732686_x_at) / RFU ORM1 (11744905_x_at) / Fold change /veh ORM1 (11744905_x_at) / RFU CCDC152 (11743942_at) / Fold change /veh CCDC152 (11743942_at) / RFU ECM1 (11717891_a_at) / Fold change /veh ECM1 (11717891_a_at) / RFU IL23R (11748794_a_at) / Fold change /veh IL23R (11748794_a_at) / RFU TNFAIP8L3 (11732012_x_at) / Fold change /veh TNFAIP8L3 (11732012_x_at) / RFU MBOAT4 (11741988_at) / Fold change /veh MBOAT4 (11741988_at) / RFU 11764193_at / Fold change /veh 11764193_at / RFU TMEM53 (11763286_at) / Fold change /veh TMEM53 (11763286_at) / RFU MAGEB2 (11727129_at) / Fold change /veh MAGEB2 (11727129_at) / RFU TMEM200A (11744735_a_at) / Fold change /veh TMEM200A (11744735_a_at) / RFU CCDC152 (11751479_a_at) / Fold change /veh CCDC152 (11751479_a_at) / RFU FAM211A (11726209_a_at) / Fold change /veh FAM211A (11726209_a_at) / RFU RGS16 (11746705_a_at) / Fold change /veh RGS16 (11746705_a_at) / RFU VCAN (11755009_s_at) / Fold change /veh VCAN (11755009_s_at) / RFU RHOB (11743442_s_at) / Fold change /veh RHOB (11743442_s_at) / RFU RGS16 (11720943_a_at) / Fold change /veh RGS16 (11720943_a_at) / RFU RGS16 (11720944_at) / Fold change /veh RGS16 (11720944_at) / RFU, VPS4B / Fold change vs veh, VPS4B / RFU, CREB1 / Fold change vs veh, CREB1 / RFU, DNAJC13 / Fold change vs veh, DNAJC13 / RFU, GNAQ / Fold change vs veh, GNAQ / RFU, CDK5R1 / Fold change vs veh, CDK5R1 / RFU, ZRANB3 / Fold change vs veh, ZRANB3 / RFU, CUL4A / Fold change vs veh, CUL4A / RFU, CCNY / Fold change vs veh, CCNY / RFU, UFL1 / Fold change vs veh, UFL1 / RFU, COG3 / Fold change vs veh, COG3 / RFU, DIAPH2 / Fold change vs veh, DIAPH2 / RFU, SKA2 / Fold change vs veh, SKA2 / RFU, AFF3 / Fold change vs veh, AFF3 / RFU, LMF1 / Fold change vs veh, LMF1 / RFU, IPO11 / Fold change vs veh, IPO11 / RFU, DFFB / Fold change vs veh, DFFB / RFU, FOXP1 / Fold change vs veh, FOXP1 / RFU, CARD8 / Fold change vs veh, CARD8 / RFU, STRN3 / Fold change vs veh, STRN3 / RFU, ADK / Fold change vs veh, ADK / RFU, RASSF2 / Fold change vs veh, RASSF2 / RFU, WIPF1 / Fold change vs veh, WIPF1 / RFU, LARP1B / Fold change vs veh, LARP1B / RFU, RASA1 / Fold change vs veh, RASA1 / RFU, RB1 / Fold change vs veh, RB1 / RFU, PPFIA1 / Fold change vs veh, PPFIA1 / RFU, MAT2A / Fold change vs veh, MAT2A / RFU, CCT5 / Fold change vs veh, CCT5 / RFU, WDR92 / Fold change vs veh, WDR92 / RFU, CUX1 / Fold change vs veh, CUX1 / RFU, TTC7A / Fold change vs veh, TTC7A / RFU, TMEM135 / Fold change vs veh, TMEM135 / RFU, DEPTOR / Fold change vs veh, DEPTOR / RFU, CPM / Fold change vs veh, CPM / RFU, DNAJB6 / Fold change vs veh, DNAJB6 / RFU, CACNA2D3 / Fold change vs veh, CACNA2D3 / RFU, DTX4 / Fold change vs veh, DTX4 / RFU, TFCP2 / Fold change vs veh, TFCP2 / RFU, GMCL1 /// GMCL1P1 / Fold change vs veh, GMCL1 /// GMCL1P1 / RFU, AEBP2 / Fold change vs veh, AEBP2 / RFU, SNHG1 /// SNORD22 /// SNORD25 /// SNORD26 /// SNORD27 /// SNORD28 /// SNORD29 /// SNORD31 / Fold change vs veh, SNHG1 /// SNORD22 /// SNORD25 /// SNORD26 /// SNORD27 /// SNORD28 /// SNORD29 /// SNORD31 / Fold change (Aza/veh), C12orf56 (ProbeSet 11735607_a_at) / Fold change (ACY-1035/veh), C12orf56 (ProbeSet 11735607_a_at) / Fold change (Aza/veh), FGFR1OP (ProbeSet 11751329_s_at) / Fold change (ACY-1035/veh), FGFR1OP (ProbeSet 11751329_s_at) / Fold change (Aza/veh), VPS36 (ProbeSet 11739960_a_at) / Fold change (ACY-1035/veh), VPS36 (ProbeSet 11739960_a_at) / RFU SYPL1 (11715823_x_at) / Fold change /veh SYPL1 (11715823_x_at) / RFU IGFBP7 (11715501_s_at) / Fold change /veh IGFBP7 (11715501_s_at) / RFU REEP3 (11722064_at) / Fold change /veh REEP3 (11722064_at) / RFU IGLL1 (11728026_x_at) / Fold change /veh IGLL1 (11728026_x_at): dose or concentration left out as unconfirmed
# Conditions: MV-4-11 cells, 48 hours
smiles,measurement,value
Nc1ccc(-c2cccs2)cc1NC(=O)c1ccc2c(c1)cc(C1CC1)n2CCN1CCOCC1 [ACY-1035],Fold change /veh NKD1 (11759106_at),1.08
